US9840498B2, “Substituted quinazolin-4-one derivatives” (NOVARTIS AG, priority 2013, dated 2017)
pIC50: −log10 of the molar value.

Key:
Conditions in all cases: enzymatic assay
PI3K gamma = PI3K gamma (Homo sapiens (Human), UniProt P48736); experiment: Biochemical assay for PI3Kgamma (Adapta TR-FRET format)
From the text: (§1) For the enzymatic assays, the preparation of PI3K gene constructs, protein expression and purification for HTS are described in WO2012/004299. […] The TR-FRET Adapta™ Universal Kinase Assay Kit was purchased from Invitrogen Corporation (Carlsbad/CA, USA) (Cat. No. PV5099). The kit contains the following reagents: Adapta Eu-anti-ADP Antibody (Europium labeled anti-ADP antibody in HEPES buffered saline, Cat. No. PV5097), Alexa Fluor® 647-labeled ADP tracer (Alexa Fluor® 647-labeled ADP tracer in HEPES buffered saline, Cat. No. PV5098), proprietary TR-FRET dilution buffer pH 7.5 (Cat. No. PV3574). PIK3CD substrate Phosphatidylinositol was obtained from Invitrogen (vesicules consisting of 2 mM PI in 50 mM HEPES pH7.5; Cat. No. PV5371). PIK3CG substrate Phosphatidylinositol-4,5-bisphosphate (PIP(4,5)2 was obtained from Invitrogen (PIP2:PS large unilamellar vesicules consisting of 1 mM PI P2: 19 mM PS in 50 mM HEPES pH7.5, 3 mM MgCl2, 1 mM EGTA; Cat. No. PV5100). Time-Resolved Fluorescence Resonance Energy Transfer (TR-FRET) is a technology based on energy transfer between two adjacent dyes, from an excited electron in one dye (the donor) to an electron of an adjacent dye (the acceptor) through resonance, then released as a photon. This energy transfer is detected by an increase in the fluorescence emission of the acceptor, and a decrease in the fluorescence emission of the donor. TR-FRET assays for protein kinases use a long-lifetime lanthanide Terbium or Europium chelates as the donor species which overcome interference from compound autofluorescence or light scatter from precipitated compounds, by introducing a delay after excitation by a flashlamp excitation source. Results are often expressed as a ratio of the intensities of the acceptor and donor fluorophores. The ratiometric nature of such a value corrects for differences in assay volumes between wells, as well as corrects for quenching effects due to colored compounds. The Adapta™ assay can be divided into two phases: a kinase reaction phase and an ADP detection phase. In the kinase reaction phase, all kinase reaction components are added to the well and the reaction is allowed to incubate for a set period of time specific for each kinase. After the reaction, a detection solution of Eu-labeled anti-ADP antibody, Alexa Fluor® 647-labeled ADP tracer, and EDTA (to stop the kinase reaction) are added to the assay well. ADP formed by the kinase reaction will displace the Alexa Fluor® 647-labeled ADP tracer from the antibody, resulting in a decrease in TR-FRET signal. In the presence of an inhibitor, the amount of ADP formed by the kinase reaction is reduced, and the resulting intact antibody-tracer interaction maintains a high TR-FRET signal. In the Adapta™ assay, the donor (Europium-anti-ADP antibody) is excited at 340 nm and will transfer its energy to the acceptor (Alexa Fluor® 647-labeled ADP tracer). The emission from the Alexa Fluor® 647 can be monitored with a filter centered at 665 nm because it is located between the emission peaks of the donor, which is measured at 615/620 nm. 50 nL of compound dilutions were dispensed onto white 384-well small volume polystyrene plate as described in section 2.2. Then 5 μL of PI3Kgamma and PI3Kdelta and lipid substrate (PI or PIP2:PS) followed by 5 μL of ATP (final assay volume 10 μL) are incubated at RT. […] Reactions were stopped with 5 μL of a mixture of EDTA containing the Eu-labeled anti-ADP antibody and the Alexa Fluor® 647-labeled ADP tracer in TR-FRET dilution buffer (proprietary to IVG). Plates are read 15 to 60 mins later in a Synergy2 reader using an integration time of 0.4 seconds and a delay of 0.05 seconds. […] The control for the 0% inhibition was given by the solvent vehicle of the compounds (90% DMSO in H2O). Data are analyzed using Excel fit software or Graphpad Prism. EC50 values were derived by fitting a sigmoidal dose-response curve to a plot of assay readout over inhibitor concentration. […]

PI3K alpha = PI3K alpha (Homo sapiens (Human), UniProt P42336); experiment: Biochemical assay for PI3Kalpha (Kinase-Glo format)
Chain of PI3K alpha (P42336 21-1068): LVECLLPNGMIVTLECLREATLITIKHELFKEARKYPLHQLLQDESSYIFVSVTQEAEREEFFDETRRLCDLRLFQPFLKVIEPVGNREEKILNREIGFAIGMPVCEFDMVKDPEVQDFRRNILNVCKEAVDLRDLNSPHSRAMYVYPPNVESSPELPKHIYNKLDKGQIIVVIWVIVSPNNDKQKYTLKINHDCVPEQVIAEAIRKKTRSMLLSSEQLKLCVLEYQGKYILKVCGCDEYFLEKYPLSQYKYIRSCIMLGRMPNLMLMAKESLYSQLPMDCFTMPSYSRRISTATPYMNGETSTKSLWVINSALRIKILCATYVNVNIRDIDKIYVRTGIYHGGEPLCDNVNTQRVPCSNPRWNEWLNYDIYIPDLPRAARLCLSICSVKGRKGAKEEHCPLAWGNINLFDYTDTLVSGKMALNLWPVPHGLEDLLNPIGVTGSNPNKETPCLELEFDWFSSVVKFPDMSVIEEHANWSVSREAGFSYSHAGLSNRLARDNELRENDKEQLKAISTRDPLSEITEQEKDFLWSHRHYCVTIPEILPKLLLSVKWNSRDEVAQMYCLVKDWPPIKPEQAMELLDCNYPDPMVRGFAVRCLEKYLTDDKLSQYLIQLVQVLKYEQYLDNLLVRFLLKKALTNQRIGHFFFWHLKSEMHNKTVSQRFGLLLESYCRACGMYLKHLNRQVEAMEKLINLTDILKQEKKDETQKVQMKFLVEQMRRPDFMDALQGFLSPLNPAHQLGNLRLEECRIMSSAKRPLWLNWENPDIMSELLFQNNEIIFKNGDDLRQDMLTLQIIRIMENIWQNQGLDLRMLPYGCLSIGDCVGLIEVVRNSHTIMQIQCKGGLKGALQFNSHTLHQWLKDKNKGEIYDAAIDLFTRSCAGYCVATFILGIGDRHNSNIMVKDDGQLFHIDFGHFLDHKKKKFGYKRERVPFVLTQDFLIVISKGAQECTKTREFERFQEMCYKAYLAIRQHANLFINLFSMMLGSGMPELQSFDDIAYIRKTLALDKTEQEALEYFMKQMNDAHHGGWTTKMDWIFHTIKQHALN
Chain of PI3K alpha (P27986 461-568 partner): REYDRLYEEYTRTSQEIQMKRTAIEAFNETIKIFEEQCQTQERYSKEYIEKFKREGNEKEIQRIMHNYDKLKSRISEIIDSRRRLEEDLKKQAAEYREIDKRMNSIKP
Experimental: 1.1 Generation of Gene Constructs, Protein Expression and Purification
For the enzymatic assays, the preparation of PI3K gene constructs, protein expression and purification for HTS are described in WO2012/004299.
1.2 Biochemical Assays for PI3Kalpha, PI3Kbeta (Kinase-Glo Format)
The kinase reaction is performed in a final volume of 50 μl per well of a half area COSTAR, 96 well plate. The final concentrations of ATP and phosphatidyl inositol in the assay are 5 μM and 6 μg/mL, respectively. The reaction is started by the addition of PI3 kinase, e.g. PI3 kinase α.
The components of the assay are added per well as follows: • 10 μl test compound in 5% DMSO per well in […]. • Total activity is determined by addition 10 μl of 5% vol/vol DMSO in the first 4 wells of column 1 and the last 4 wells of column 12. • The background is determined by addition of 10 μM control compound to the last 4 wells of column 1 and the first 4 wells of column 12. • 2 mL ‘Assay mix’ are prepared per plate: • 1.912 mL of HEPES assay buffer • 8.33 μl of 3 mM stock of ATP giving a final concentration of 5 μM per well • 1 μl of [^33P]ATP on the activity date giving 0.05 μCi per well • 30 μl of 1 mg/mL PI stock giving a final concentration of 6 μg/mL per well • 5 μl of 1 M stock MgCl2 giving a final concentration of 1 mM per well • 20 μl of the assay mix are added per well. • 2 mL ‘Enzyme mix’ are prepared per plate (x* μl PI3 kinase p110α in 2 mL of kinase buffer). The ‘Enzyme mix’ is kept on ice during addition to the assay plates. * The volume of enzyme is dependent on the enzymatic activity of the batch in use. • 20 μl ‘Enzyme mix’ are added/well to start the reaction. • The plate is then incubated at room temperature for 90 minutes. • The reaction is terminated by the addition of 50 μl WGA-SPA bead (wheat germ agglutinin-coated Scintillation Proximity Assay beads) suspension per well. • The assay plate is sealed using TopSeal-S (heat seal for polystyrene microplates, PerkinElmer LAS [Deutschland] GmbH, Rodgau, Germany) and incubated at room temperature for at least 60 minutes. • The assay plate is then centrifuged at 1500 rpm for 2 minutes using the Jouan bench top centrifuge (Jouan Inc., Nantes, France). • The assay plate is counted using a Packard TopCount, each well being counted for 20 seconds.
In a more preferred assay, the kinase reaction is performed in a final volume of 10 μl per well of a low volume non-binding CORNING, 384 well black plate (Cat. No. #3676). The final concentrations of ATP and phosphatidyl inositol (PI) in the assay are 1 μM and 10 μg/mL, respectively. The reaction is started by the addition of ATP.
The components of the assay are added per well as follows: […]

PI3K delta = PI3K delta (Homo sapiens (Human), UniProt O00329); experiment: Biochemical assay for PI3Kdelta (Adapta TR-FRET format)
Chain of PI3K delta (O00329 2-1044): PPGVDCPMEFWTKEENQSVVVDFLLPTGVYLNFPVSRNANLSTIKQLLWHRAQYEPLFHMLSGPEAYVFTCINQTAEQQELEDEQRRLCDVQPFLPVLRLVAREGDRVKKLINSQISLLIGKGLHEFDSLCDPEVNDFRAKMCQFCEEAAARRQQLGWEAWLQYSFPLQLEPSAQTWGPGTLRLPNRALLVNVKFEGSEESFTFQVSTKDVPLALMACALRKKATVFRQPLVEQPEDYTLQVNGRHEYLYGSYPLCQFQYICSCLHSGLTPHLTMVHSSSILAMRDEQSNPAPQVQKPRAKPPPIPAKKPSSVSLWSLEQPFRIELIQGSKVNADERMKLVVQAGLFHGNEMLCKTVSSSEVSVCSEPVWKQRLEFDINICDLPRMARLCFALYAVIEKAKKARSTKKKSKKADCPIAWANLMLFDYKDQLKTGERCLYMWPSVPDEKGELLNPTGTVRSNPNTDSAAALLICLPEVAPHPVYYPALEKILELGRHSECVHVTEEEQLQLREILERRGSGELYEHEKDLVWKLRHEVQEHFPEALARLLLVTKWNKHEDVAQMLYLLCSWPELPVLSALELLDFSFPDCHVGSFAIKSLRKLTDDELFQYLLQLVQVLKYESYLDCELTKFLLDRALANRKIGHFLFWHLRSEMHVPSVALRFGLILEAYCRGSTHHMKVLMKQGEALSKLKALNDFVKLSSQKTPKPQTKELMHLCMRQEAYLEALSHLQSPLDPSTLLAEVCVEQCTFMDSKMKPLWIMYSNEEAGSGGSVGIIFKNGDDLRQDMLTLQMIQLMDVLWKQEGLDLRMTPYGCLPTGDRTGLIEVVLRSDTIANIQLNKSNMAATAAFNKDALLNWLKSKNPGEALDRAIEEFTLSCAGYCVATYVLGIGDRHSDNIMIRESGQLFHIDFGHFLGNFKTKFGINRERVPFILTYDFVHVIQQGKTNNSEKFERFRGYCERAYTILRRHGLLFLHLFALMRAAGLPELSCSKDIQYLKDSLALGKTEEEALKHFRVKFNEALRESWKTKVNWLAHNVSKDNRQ
Chain of PI3K delta (P27986 461-568 partner): as the sequence (P27986 461-568 partner) above
From the text: as §1

Chain of PI3K gamma (P48736 whole entry): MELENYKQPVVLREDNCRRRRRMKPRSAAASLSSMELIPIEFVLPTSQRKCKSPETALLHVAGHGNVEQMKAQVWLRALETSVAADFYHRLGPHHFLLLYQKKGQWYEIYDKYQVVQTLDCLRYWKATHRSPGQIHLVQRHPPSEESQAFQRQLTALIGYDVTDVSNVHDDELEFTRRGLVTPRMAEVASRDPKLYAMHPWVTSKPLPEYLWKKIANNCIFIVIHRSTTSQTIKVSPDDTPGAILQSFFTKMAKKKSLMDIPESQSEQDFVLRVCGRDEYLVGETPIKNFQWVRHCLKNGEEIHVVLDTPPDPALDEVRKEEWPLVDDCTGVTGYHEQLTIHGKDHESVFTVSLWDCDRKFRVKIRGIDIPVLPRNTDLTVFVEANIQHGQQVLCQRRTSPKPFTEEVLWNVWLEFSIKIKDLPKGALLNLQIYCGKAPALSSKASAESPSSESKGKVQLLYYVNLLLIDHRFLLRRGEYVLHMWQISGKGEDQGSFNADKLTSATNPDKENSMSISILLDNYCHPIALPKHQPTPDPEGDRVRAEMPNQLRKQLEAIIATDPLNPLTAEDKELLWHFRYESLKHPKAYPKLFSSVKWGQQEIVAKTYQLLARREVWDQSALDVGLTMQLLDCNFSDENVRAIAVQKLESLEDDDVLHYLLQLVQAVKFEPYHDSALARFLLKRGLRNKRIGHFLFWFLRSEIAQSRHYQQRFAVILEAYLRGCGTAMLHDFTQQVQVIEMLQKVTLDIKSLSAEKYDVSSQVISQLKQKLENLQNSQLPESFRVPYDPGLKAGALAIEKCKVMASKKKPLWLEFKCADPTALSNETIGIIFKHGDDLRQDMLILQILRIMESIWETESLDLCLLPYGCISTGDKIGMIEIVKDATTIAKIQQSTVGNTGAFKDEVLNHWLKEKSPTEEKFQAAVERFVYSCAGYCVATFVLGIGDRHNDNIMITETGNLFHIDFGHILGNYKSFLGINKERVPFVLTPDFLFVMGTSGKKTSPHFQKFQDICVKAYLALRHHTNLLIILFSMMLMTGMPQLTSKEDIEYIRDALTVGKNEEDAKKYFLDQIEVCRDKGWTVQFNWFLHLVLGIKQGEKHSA

Row | SMILES | pIC50 (PI3K gamma) | pIC50 (PI3K alpha) | pIC50 (PI3K delta)
1 | CCOc1ncc(-c2c(F)ccc3nc([C@@H]4C[C@H](O)CN4c4nc(N)nc(C)c4C#N)n(-c4ccccc4)c(=O)c23)cn1 [Example 29, 2-Amino-4-((2S,4S)-2-(5-(2-ethoxypyrimidin-5-yl)-6-fluoro-4-oxo-3-phenyl-3,4-dihydroquinazolin-2-yl)-4-hydroxypyrrolidin-1-yl)-6-methylpyrimidine-5-carbonitrile] | 7.89 | 6.43 | 8.40
2 | Cc1nc(N)nc(N2C[C@@H](O)C[C@H]2c2nc3ccc(F)c(-c4cn(C)cn4)c3c(=O)n2-c2ccccc2)c1C#N [Example 31, 2-Amino-4-((2S,4S)-2-(6-fluoro-5-(1-methyl-1H-imidazol-4-yl)-4-oxo-3-phenyl-3,4-dihydroquinazolin-2-yl)-4-hydroxypyrrolidin-1-yl)-6-methylpyrimidine-5-carbonitrile] | 6.96 | 6.24 | 7.89
3 | N#Cc1c(N)ncnc1N1CCC[C@H]1c1nc2cccc(C#CCO)c2c(=O)n1-c1ccccc1 [Example 33, (S)-4-Amino-6-(2-(5-(3-hydroxyprop-1-yn-1-yl)-4-oxo-3-phenyl-3,4-dihydroquinazolin-2-yl)pyrrolidin-1-yl)pyrimidine-5-carbonitrile] | 7.09 | 6.21 | 7.89

More lines, now with the values ahead:

Row | pIC50 (PI3K gamma) | pIC50 (PI3K alpha) | pIC50 (PI3K delta) | SMILES
4 | 7.24 | 7.07 | 8.00 | COc1ccc(-c2cccc3nc([C@@H]4C[C@H](O)CN4c4nc(N)nc(C)c4C#N)n(-c4ccccc4)c(=O)c23)cn1 [Example 27, 2-Amino-4-((2S,4S)-4-hydroxy-2-(5-(6-methoxypyridin-3-yl)-4-oxo-3-phenyl-3,4-dihydroquinazolin-2-yl)pyrrolidin-1-yl)-6-methylpyrimidine-5-carbonitrile]
5 | 7.68 | 6.62 | 8.00 | Cc1nc(N)nc(N2C[C@@H](O)C[C@H]2c2nc3cccc(-c4cnn(CCO)c4)c3c(=O)n2-c2ccccc2)c1C#N [Example 28, 2-Amino-4-((2S,4S)-4-hydroxy-2-(5-(1-(2-hydroxyethyl)-1H-pyrazol-4-yl)-4-oxo-3-phenyl-3,4-dihydroquinazolin-2-yl)pyrrolidin-1-yl)-6-methylpyrimidine-5-carbonitrile]
6 | 7.62 | 6.35 | 7.85 | Cc1nc(N)nc(N2C[C@@H](F)C[C@H]2c2nc3cccc(-c4cnn(C)c4)c3c(=O)n2-c2ccccc2)c1C#N [Example 30, 2-Amino-4-((2S,4S)-4-fluoro-2-(5-(1-methyl-1H-pyrazol-4-yl)-4-oxo-3-phenyl-3,4-dihydroquinazolin-2-yl)pyrrolidin-1-yl)-6-methylpyrimidine-5-carbonitrile]
7 | 6.85 | 6.31 | 8.30 | CCOc1ncc(-c2cccc3nc([C@@H]4CCCN4c4nc(N)nc(C)c4C#N)n(-c4ccccc4)c(=O)c23)cn1 [Example 32, (S)-2-Amino-4-(2-(5-(2-ethoxypyrimidin-5-yl)-4-oxo-3-phenyl-3,4-dihydroquinazolin-2-yl)pyrrolidin-1-yl)-6-methylpyrimidine-5-carbonitrile]
